Experimental data taken from US20240025862A1, “SUBSTITUTED N-PHENYLURACILS AND SALTS THEREOF, AND USE THEREOF AS HERBICIDAL ACTIVE SUBSTANCES” (Bayer Aktiengesellschaft, priority 2020, published 2024).

Tests used:
Format in all cases: in vivo
[1] = system: Abutilon theophrasti (ABUTH); test: Post-emergence herbicidal action, greenhouse pot test; conditions: rated visually after about 3 weeks vs untreated controls, 100% = plants have died
Method: (§1) Seeds of monocotyledonous and dicotyledonous weeds and crop plants were placed in sandy loam in plastic or wood-fiber pots, covered with soil and cultivated in a greenhouse under controlled growth conditions. 2 to 3 weeks after sowing, the test plants were treated at the one-leaf stage. The compounds of the invention, formulated in the form of wettable powders (WP) or as emulsion concentrates (EC), were then sprayed onto the green parts of the plants as aqueous suspension or emulsion with addition of 0.5% additive at a water application rate of 600 l/ha (converted). After the test plants had been kept in the greenhouse under optimum growth conditions for about 3 weeks, the activity of the preparations was rated visually in comparison to untreated controls. For example, 100% activity=the plants have died, 0% activity=like control plants.
(§2) Tables A1 to A14 below show the effects of selected compounds of the general formula (I) according to Tables I.1 to I.33 on various harmful plants and at an application rate corresponding to 20 g/ha and less, which were obtained by the experimental method specified above. The appendices “a”, “b” and “c” give differentiation by different dosage with otherwise the same harmful plants tested.

[2] = system: Amaranthus retroflexus (AMARE); test: as above; conditions: rated visually after about 3 weeks vs untreated controls, 100% = plants have died
Method: as §1, §2

[3] = system: Pharbitis purpurea (PHBPU); test: as above
Method: as §1, §2

[4] = system: Polygonum convolvulus (POLCO); test: as above; conditions: dosage 20 g/ha
Method: as §1, §2

Veronica persica (VERPE) = test: as above
Method: as §1, §2

Viola tricolor (VIOTR) = test: as above
Method: as §1, §2

[5] = system: Alopecurus myosuroides (ALOMY); test: Post-emergence herbicidal action, greenhouse pot test (also comparative test C); conditions: 20 g/ha, rated visually after about 3 weeks vs untreated controls, 100% = plants have died
Method: as §1, §2
(§3) C. Comparative Herbicidal Action and Crop Plant Compatibility of Two Inventive Compounds (I.7-1 and I.7-115) with a Compound of Similar Structure Known from the Literature (WO2002/098227, a-17 and EP1106607, 3-14) in Post-Emergence Treatment.
(§4) Tables C1-C4 below show the effects of two inventive compounds (I.7-1 and I.7-115) together with a compound of similar structure known from the literature (a-17 in WO2002/098227, and 3-14 in EP1106607) in different crop plants at an application rate corresponding to 5 g/ha or less, which have been obtained by the aforementioned experimental procedure.

[6] = system: Echinochloa crus-galli (ECHCG); test: as above
Method: as §1, §2, §3, §4

[7] = system: Matricaria inodora (MATIN); test: as above
Method: as §1, §2, §3, §4

Setaria viridis (SETVI) = test: as above; conditions: for Post-emergence action against SETVI: 20 g/ha
Method: as §1, §2, §3, §4

[8] = system: Triticum aestivum (TRZAS); test: Post-emergence crop plant compatibility, greenhouse pot test; conditions: vs untreated controls
Method: as §1
(§5) The observed effects on selected crop plants are reported here in comparison to the untreated controls (values in %). The appendices “a”, “b” and “c” give differentiation by different dosage with otherwise the same crop plants tested.

Zea mays (ZEAMX) = test: as above; conditions: vs untreated controls
Method: as §1, §5

Oryza sativa (ORYSA) = test: Post-emergence crop plant compatibility, greenhouse pot test (also comparative test C); conditions: for Post-emergence action against ORYSA (crop plant compatibility): vs untreated controls; for Post-emergence action against ORYSA in %: 20 g/ha, crop plant compatibility
Method: as §1, §5, §3

Row | Post-emergence action against TRZAS (crop plant compatibility) ([8]; 1.25 g/ha) [%] | SMILES | Post-emergence action at 5 g/ha against ABUTH in % [1] [%] | Post-emergence action at 20 g/ha against ABUTH in % [1] [%] | Post-emergence action at 1.25 g/ha against AMARE in % [2] [%] | Post-emergence action at 5 g/ha against AMARE in % [2] [%] | Post-emergence action at 20 g/ha against AMARE in % [2] [%] | Post-emergence action against PHBPU in % ([3]; dosage 5 g/ha) [%] | Post-emergence action against PHBPU in % ([3]; dosage 20 g/ha) [%] | Post-emergence action against POLCO in % [4] [%] | Post-emergence action against VERPE (Veronica persica (VERPE); 5 g/ha) [%] | Post-emergence action against VERPE (Veronica persica (VERPE); 20 g/ha) [%] | Post-emergence action against VIOTR (Viola tricolor (VIOTR); 1.25 g/ha) [%] | Post-emergence action against VIOTR (Viola tricolor (VIOTR); 5 g/ha) [%] | Post-emergence action against VIOTR (Viola tricolor (VIOTR); 20 g/ha) [%] | Post-emergence action at 20 g/ha against ALOMY in % [5] [%] | Post-emergence action against ECHCG in % ([6]; dosage 20 g/ha) [%] | Post-emergence action against MATIN in % ([7]; dosage 5 g/ha) [%] | Post-emergence action against MATIN in % ([7]; dosage 20 g/ha) [%] | Post-emergence action against SETVI (Setaria viridis (SETVI)) [%] | Post-emergence action against SETVI in % (Setaria viridis (SETVI); dosage 5 g/ha) [%] | further results
1 | 0 | Cn1c(C(F)(F)F)cc(=O)n(-c2cc(Oc3ccccc3OCC(=O)OCC[N+](=O)[O-])c([N+](=O)[O-])cc2F)c1=O [I.6-183] | 100 | 100 | 100 | 100 | 100 | 100 | 100 | 100 | 100 | 100 | 90 | 100 | 100 | 90 | 80 | 80 | 100 | 100 | 100 | Post-emergence action against PHBPU in % ([3]; dosage 1.25 g/ha): 100%; Post-emergence action against TRZAS (crop plant compatibility) ([8]; 5 g/ha): 20%; Post-emergence action against ZEAMX (crop plant compatibility) (Zea mays (ZEAMX); 1.25 g/ha): 20%; Post-emergence action against ZEAMX (crop plant compatibility) (Zea mays (ZEAMX); 5 g/ha): 20%; Post-emergence action against ORYSA (crop plant compatibility) (Oryza sativa (ORYSA); 1.25 g/ha): 0%; Post-emergence action against ORYSA (crop plant compatibility) (Oryza sativa (ORYSA); 5 g/ha): 0%; Post-emergence action against ORYSA in % (Oryza sativa (ORYSA)): 0%
2 | 0 | Cn1c(C(F)(F)F)cc(=O)n(-c2cc(Oc3ccccc3OCC(=O)OCc3cccnc3)c(Cl)cc2F)c1=O [I.7-277] | 100 | 100 | 100 | 100 | 100 | 100 | 100 | 100 | 100 | 100 | 80 | 100 | 100 | 100 | 100 | 80 | 100 | 100 | 100 | Post-emergence action at 1.25 g/ha against ABUTH in % ([1]; 1.25 g/ha): 90%; Post-emergence action against VERPE (Veronica persica (VERPE); 1.25 g/ha): 100%; Post-emergence action against ECHCG in % ([6]; dosage 5 g/ha): 100%; Post-emergence action against SETVI in % (Setaria viridis (SETVI); dosage 1.25 g/ha): 100%; Post-emergence action against TRZAS (crop plant compatibility) ([8]; 5 g/ha): 20%; Post-emergence action against ZEAMX (crop plant compatibility) (Zea mays (ZEAMX); 1.25 g/ha): 0%; Post-emergence action against ORYSA (crop plant compatibility) (Oryza sativa (ORYSA); 1.25 g/ha): 0%; Post-emergence action against ORYSA (crop plant compatibility) (Oryza sativa (ORYSA); 5 g/ha): 0%; Post-emergence action against ORYSA in % (Oryza sativa (ORYSA)): 20%
